Like-named read-outs stand apart in the source and are kept apart here.
Key:
[1] = system: GM00371 cells; assay: Viability assay (Cell titer glo) in the 3-HIB assay; type: cell-based, human; conditions: read-out: 3HIB INHIBITION IC50 (μM) MEAN GM00371 cells Viablility Assay
In short: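 GM00371 cells (10,000/well, EMEM/15% FBS) were exposed for 24 h at 37 °C to compounds in 1:3 serial dilution from 30 μM top concentration in EMEM. Reference Compound B at 30 μM served as maximal-toxicity control. Viability read as CellTiter-Glo luminescence.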

[2] = 3-HIB assay in vitro, direct MS assay of conditioned media; type: cell-based, human; conditions: GM00371 cells, read-out: 3HIB INHIBITION IC50 (μM) MEAN GM00371 cells Direct MS Assay
Description: Cell Plating: Cells (Coriell Institute GM00371 cells) were plated (96-well clear bottom sterile plate; Greiner 655098) at 10,000 cells/0.1 mL in Eagle's minimum essential medium (EMEM)/15% FBS (Gibco 16000-044) with a Combi dispenser in a cell culture hood and incubated at 37° C. and 5% CO2 overnight.
Compound Dilution: Compound were prepared as 33.3× intermediate dilution in DMSO in 96 well round polystyrene plates. For 30 μM final maximum start with 30 μL of 10 mM in DMSO. 10-12 1:3 serial dilutions were prepared from left to right (20 μL+40 μL DMSO). A 10× secondary dilution was prepare in EMEM by taking 7.5 μL 33.3× and transfer to replicate 96 well round polystyrene plates and then adding 242.5 μL EMEM A 1× final dilution in EMEM was prepared by taking 50 μL 10× dilution and transferring to replicate 96 well polypropylene assay block (Costar 3956) and adding 450 μL EMEM A control was prepared for maximal compound inhibition by taking 20 μL 10 mM Reference Compound A and adding 40 μL DMSO for a concentration of 3.3 mM To 7.5 μL of the 3.3 mM Reference Compound A solution and added 242.5 μL EMEM to make a 100 μM solution. The subsequent Reference Compound A solution was diluted with EMEM to achieve a final concentration of 10 μM. The structure of Reference Compound A is:
A control was prepared for maximal compound toxicity by taking 7.5 μL Reference Compound B and 242.5 μL EMEM to make […]. 50 μL of that 100 μM Reference Compound B solution was combined with 450 μL EMEM to achieve a concentration of 30 μM. The structure of Reference Compound B is
A DMSO Control was prepared by dilution 7.5 μL with 242.5 μL EMEM and taking 50 μL of the subsequent solution and diluting with 450 μL EMEM.
Compound Treatment: Media was aspirated from the cells and 100 μL of D-PBS (ThermoFisher 14190144) was added and then removed. 100 μL of diluted compound was added to the cells in the place and the cells were incubated at 37° C. and 5% CO2 for 24 hours.
Collection of Conditioned Media: For 3HIB MS detection: 20 μL conditioned media was removed from the cells and was transferred to a labeled replicate 96 well polypropylene assay plate (VWR 62408-946). And the plate was heat sealed and stored at −80° C.
3HIB Derivatization (Generalized SOP): The media collected for 3HIB MS detection was derivatized under the following conditions. Buffer: 0.1M 1-Ethyl-3-(3-dimethylaminopropyl)carbodiimide (EDC) dissolved in 0.1 M 2-(N-morpholino)ethanesulfonic acid ([…]) adjusted to pH 5.6. Buffer prep: weighed 10.6 g MES (Sigma #M-5287) per 500 mL HPLC grade H2O. Stored at 4° C.; 0.1M EDC: Weighed 1.971 g EDC (#E-1769) per 100 mL MES. Adjusted pH to 5.6 with ˜40 drops of 1N NaOH and stored at 4° C. Buffer has a short half-life should be used within two weeks.
Derivatization: To 20 μL sample was added 60 μL 5 uM 3HIB-4C13 internal standard followed by 20 μL EDC in MES and 100 μL MES. The plate was sealed and incubate at 50° C. for […] then centrifuged at 4000 rpm at 6° C. for 10 minutes. LC-MS analysis was then conducted and the data was processed using standard methods.

Row | IC50 ([2]; Homo sapiens, 24 h) [µM] | IC50 ([2]; 24 hours) [µM] | Structure (SMILES) | IC50 ([1]; Homo sapiens, 24 h) [µM] | IC50 ([1]; 24 hours) [µM]
1 | 0.1 to 0.5 |  | COC(=O)c1ccc2c(c1)nc(-c1ccccn1)n2[C@@H]1CCC[C@H](NC(=O)c2ccc(Br)s2)C1 [Compound 109] | 0.1 to 0.5 | 
2 | 0.5 to 1 |  | CNC(=O)c1ccc2c(c1)nc(-c1ccccn1)n2[C@@H]1CCC[C@H](NC(=O)c2ccc(C#N)s2)C1 [Compound 112] | ≥ 1 | 
3 | 0.1 to 0.5 |  | CNC(=O)c1ccc2c(c1)nc(-c1ccccc1C)n2[C@H]1CCC[C@@H](NC(=O)c2ccc(Br)s2)C1 [Compound 135] | 0.5 to 1 | 
4 |  | 0.1 to 0.5 | CNC(=O)c1ccc2c(c1)nc(-c1ccccc1C#N)n2[C@H]1CCC[C@@H](NC(=O)c2ccc(Br)s2)C1 [Compound 137] |  | 0.1 to 0.5
5 | ≥ 1 |  | CNC(=O)c1ccc2c(c1)nc(-c1ccccc1C#N)n2[C@H]1CCC[C@@H](NC(=O)c2ccc(C#N)s2)C1 [Compound 138] | ≥ 1 | 
6 | 0.5 to 1 |  | CNC(=O)c1cc2nc(-c3ccccn3)n([C@H]3CCC[C@@H](NC(=O)c4ccc(Br)s4)C3)c2cc1F [Compound 155] | 0.5 to 1 | 
7 | 0.1 to 0.5 |  | CNC(=O)c1ccc2c(c1)nc(-c1cccc(F)c1O)n2[C@H]1CCC[C@@H](NC(=O)c2ccc(Br)s2)C1 [Compound 163] | 0.1 to 0.5 | 
8 | < 0.1 |  | CNC(=O)c1cc2nc(-c3ccccc3F)n([C@H]3CCC[C@@H](NC(=O)c4ccc(Br)s4)C3)c2cc1F [Compound 207] | 0.1 to 0.5 | 
9 | ≥ 1 |  | CNC(=O)c1cc2nc(-c3ccccc3C)n([C@H]3CCC[C@@H](NC(=O)c4ccc(Br)s4)C3)c2cc1F [Compound 208] | 0.1 to 0.5 | 
10 | 0.1 to 0.5 |  | COC(=O)c1cc2nc(-c3ccccn3)n([C@@H]3CCC[C@H](NC(=O)c4ccc(Br)s4)C3)c2cn1 [Compound 291] | 0.1 to 0.5 | 

Second part, the molecule before the results:

Row | Structure (SMILES) | IC50 ([2]; Homo sapiens, 24 h) [µM] | IC50 ([2]; 24 hours) [µM] | IC50 ([1]; Homo sapiens, 24 h) [µM] | IC50 ([1]; 24 hours) [µM]
11 | CNC(=O)c1ccc2c(c1)nc(-c1ccccc1C)n2[C@H]1CCC[C@@H](NC(=O)c2ccc(C#N)s2)C1 [Compound 134] | 0.5 to 1 |  | ≥ 1 | 
12 | CNC(=O)c1ccc2c(c1)nc(-c1ccccc1C#N)n2[C@H]1CCC[C@@H](NC(=O)c2ccc(Br)s2)C1 [Compound 136] | < 0.1 |  | < 0.1 | 
13 | CNC(=O)c1ccc2c(c1)nc(-c1ccccc1C#N)n2[C@H]1CCC[C@@H](NC(=O)c2ccc(C#N)s2)C1 [Compound 139] |  | ≥ 1 |  | ≥ 1
14 | CNC(=O)c1ccc2c(c1)nc(-c1ccccc1F)n2[C@H]1CCC[C@@H](NC(=O)c2ccc(Br)s2)C1 [Compound 145] | < 0.1 |  | 0.1 to 0.5 | 
15 | C#Cc1ccccc1-c1nc2cc(C(=O)NC)ccc2n1[C@H]1CCC[C@@H](NC(=O)c2ccc(Br)s2)C1 [Compound 151] | < 0.1 |  | 0.1 to 0.5 | 
16 | CNC(=O)c1ccc2c(c1)nc(-c1cccc(F)c1)n2[C@H]1CCC[C@@H](NC(=O)c2ccc(Br)s2)C1 [Compound 154] | < 0.1 |  | 0.1 to 0.5 | 
17 | CNC(=O)c1cc2nc(-c3ccccc3C#N)n([C@H]3CCC[C@@H](NC(=O)c4ccc(Br)s4)C3)c2cc1F [Compound 157] | < 0.1 |  | < 0.1 | 
18 | CNC(=O)c1ccc2c(c1)nc(-c1ccccc1C=O)n2[C@H]1CCC[C@@H](NC(=O)c2ccc(Br)s2)C1 [Compound 161] | 0.1 to 0.5 |  | 0.1 to 0.5 | 
19 | CNC(=O)c1ccc2c(c1)nc(-c1c(O)cccc1F)n2[C@H]1CCC[C@@H](NC(=O)c2ccc(Br)s2)C1 [Compound 184] | 0.1 to 0.5 |  | 0.1 to 0.5 | 
20 | CNC(=O)c1cc2nc(-c3ccccn3)n([C@H]3CCC[C@@H](NC(=O)c4ccc(Br)s4)C3)c2cn1 [Compound 292] | 0.1 to 0.5 |  | 0.1 to 0.5 | 

Reference: US20220274967A1, “BCAT MODULATION” (Icagen, LLC, priority 2019, published 2022)
